Among the data in US10640515B2, “Hepatitis C virus inhibitor and uses thereof” (priority 2016, dated 2020) are bioavailability, EC50 and CC50 values, retold here.

What is called bioavailability is dose-corrected exposure relative to a reference, in per cent. In general, EC50 refers to the midpoint of the concentration-response curve. A lower EC50 goes with higher potency in that assay. What is called CC50 is the concentration at which the toxic effect on the cells reaches its halfway point.

For data set [1] the following is noted: in the rats, reported in a literature; cited from earlier work.
Data set [2] deals with HCV 1a-genetype replicon H77. Put plainly: HCV replicon luciferase assay, HCV-1a replicon (Huh7-H77, renilla luciferase). Type of data set: cell-based. The following applies: Hepatitis C virus, Huh7-H77 cells, 72 hours. An excerpt: (§1) The HCV replicon was first reported in Science. 1999 Jul. 2; 285 (5424), 110-3. The HCV replicon system has been one of the most important tools to investigate the RNA replication, pathogenicity and virus persistence of HCV. For example, the replicon has been successfully used to verify the 5′-NCR minimum region essential for HCV RNA replication, in addition, the HCV replicon system has been successfully used as an evaluation model for antiviral drugs.
(§2) In brief, three stably-transfected cell lines containing different HCV genotypes of replicons were used to test activity of the compounds in inhibiting the HCV replication.
(§3) A Huh7-Con1b cell line contained an HCV 1b-genotype replicon Con1b and a reporter gene of firefly luciferase. An Huh7-H77 and an Huh7-JFH1 cell line both contained a reporter gene of renilla luciferase and respectively contained an HCV 1a-genetype replicon H77 and an HCV 2a-genetype replicon JFH1. The replication level of HCV in host cells can be characterized by the expression of the firefly luciferase gene or the renilla luciferase gene. The effect of the compounds described herein on the HCV replication can be evaluated through a chemiluminescence detection of the expression of the above two luciferase genes. Meanwhile, the CC50 value of each Huh7 cell line was measured using a CellTiter GLO kit to evaluate the toxicity of the compounds.
(§4) The compounds described herein were subjected to three-fold serial dilutions using a Bravo liquid treatment system to obtain a total of 11 concentration points prior to cell plating. The prepared compounds were added to cell culture plates using an Echo 550 system. The Huh7-H77 and the Huh7-JFH1 cells were inoculated into the 96-well plate added with the compounds at an amount of 10000 cells per well. The Huh7-Con1b and the Huh7 cells were inoculated into the 384-well plate added with the compounds at an amount of 5000 cells per well. The cell culture plates were incubated in a CO2 incubator (5%) at 37° C. for 72 hours.
(§5) The 96-well plate was taken out of the incubator and cooled at room temperature for 30 minutes. After removing the medium, each well was added with 30 μL of a diluted Promega lysate (diluted using pure water in a volume ratio of 1:4). The 96-well plate was placed in a shaker at a shaking rate of 1000 rpm at room temperature for 15 minutes. Each well was added with 100 μL of a diluted Premega luciferase reagent (Promega Inc.) (diluted using a substrate buffer in a volume ratio of 1:99) and then, the 96-well plate was immediately read using an Envision Plate Reader at a signal accumulation time of per well of 0.1 s.
A general note: Replicon systems follow genome replication, usually without infectious particles.

Data set [3] in a line: CC50 by CellTiter-GLO kit, HCV-2a replicon cell. The data set is classed as cell-based. As to conditions: human.
Text: as §3, §4
(§6) The CellTiter-GLO reagent was heated to room temperature. The 384-well plate plated with the Huh 7 cells was transferred from the incubator and cooled at room temperature for 20 minutes. Each well was added with 50 μL of the CellTiter-GLO reagent (Promega Inc.), and then the 384-well plate was shaken for 2 minutes. The 384-well plate was subsequently incubated in a dark environment at room temperature for 10 minutes. After the incubation, the 384-well plate was read using an Envision Plate Reader at a signal accumulation time of per well of 0.1 s.
(Cellular ATP, detected with luciferase, serves as a proxy for viable cell number.)

Data set [4] in a line: CC50 by CellTiter-GLO kit, HCV-1a replicon cell. The following applies: human. Type of data set: cell-based.
Text: as §3, §4, §6

For data set [5], the system named is HCV 1b-genotype replicon Con1b. Put plainly: HCV replicon luciferase assay, HCV-1b replicon (Huh7-Con1b, firefly luciferase). The following applies: Hepatitis C virus, Huh7-Con1b cells, 72 hours. The data set is classed as cell-based.
Text: as §2, §3, §4
The 384-well plate was taken out of the incubator and cooled at room temperature for 30 minutes. After removing the medium, each well was added with 50 μL of DPBS (Dulbecco's Phosphate Buffered Saline) and then added with 50 μL of a Britelit plus reagent (PerkinElmer Inc.). Then the 384-well plate was placed in a shaker at a shaking rate of 1000 rpm at room temperature for 1 minute. Finally, the 384-well plate was read using an Envision Plate Reader at a signal accumulation time of per well of 0.1 s.

A short description of data set [6]: CC50 by CellTiter-GLO kit, HCV-1b replicon cell. The data set is classed as cell-based. The following applies: human.
Text: as §3, §4, §6

In data set [7] the test system is HCV 2a-genetype replicon JFH1. Put plainly: HCV replicon luciferase assay, HCV-2a replicon (Huh7-JFH1, renilla luciferase). Type of data set: cell-based, hepatitis C virus (HCV). The following applies: Huh7-JFH1 cells.
Text: as §1, §2, §3, §4, §5

As to `COC(=O)N[C@H](C(=O)N1CCC[C@H]1C(=O)Nc1ccc([C@@H]2CC[C@@H](c3ccc(NC(=O)[C@@H]4CCCN4C(=O)[C@@H](NC(=O)OC)C(C)C)cc3)N2c2ccc(C(C)(C)C)cc2)cc1)C(C)C` [ABT-267], the bioavailability in data set [1] is recorded as 100%.
In the case of `COC(=O)N[C@H](C(=O)N1CCC[C@H]1C(=O)Nc1ccc2c(c1)O[C@H](c1ccccc1)n1c-2cc2cc(NC(=O)[C@@H]3CCCN3C(=O)[C@@H](NC(=O)OC)C(C)C)ccc21)C(C)C` [PA6001-A], the EC50 turned out to be 2.94 nM in data set [2]; 0.00814 nM in data set [5]; 0.0546 nM in data set [7] (Hepatitis C virus, 72 h). Further, the CC50 at 72 h in data set [3], in data set [4] and in data set [6] was > 100 nM throughout.
With `COC(=O)N[C@H](C(=O)N1CCC[C@H]1C(=O)Nc1ccc2c(c1)O[C@@H](c1ccccc1)n1c-2cc2cc(NC(=O)[C@@H]3CCCN3C(=O)[C@@H](NC(=O)OC)C(C)C)ccc21)C(C)C` [PA6001-B], the EC50 in data set [2] was 0.0593 nM; in data set [5], 0.0068 nM; in data set [7] (Hepatitis C virus, 72 h), 0.0626 nM. Also, the CC50 at 72 h in data set [3], in data set [4] and in data set [6] was > 100 nM each time.
Regarding `COC(=O)N[C@H](C(=O)N1CCC[C@H]1C(=O)Nc1ccc2c(c1)OC(c1ccccc1)n1c-2cc2cc(NC(=O)[C@@H]3CCCN3C(=O)[C@@H](NC(=O)OC)C(C)C)ccc21)C(C)C` (some centres unmarked) [PA6001], the EC50 in data set [2] is 1.57 nM; in data set [5] it was 0.02 nM; in data set [7] (Hepatitis C virus, 72 h), 0.059 nM. The CC50 at 72 h in data set [3], in data set [4] and in data set [6] was > 100 nM in each case.
Take `COC(=O)N[C@H](C(=O)N1CC2(CC2)C[C@H]1C(=O)Nc1ccc2c(c1)OC(c1ccccc1)n1c-2cc2cc(NC(=O)[C@@H]3CC4(CC4)CN3C(=O)[C@@H](NC(=O)OC)C(C)C)ccc21)C(C)C` (some centres unmarked) [PA6002]: the EC50 in data set [2] came out at 0.03 nM; in data set [5] it was 0.005 nM; in data set [7] (Hepatitis C virus, 72 h) it was 0.148 nM. The CC50 at 72 h in data set [3], in data set [4] and in data set [6] was > 100 nM throughout.
As to `COC(=O)N[C@H](C(=O)N1C[C@H](F)C[C@H]1C(=O)Nc1ccc2c(c1)OC(c1ccccc1)n1c-2cc2cc(NC(=O)[C@@H]3C[C@H](F)CN3C(=O)[C@@H](NC(=O)OC)C(C)C)ccc21)C(C)C` (some centres unmarked) [PA6010], the EC50 in data set [2] turned out to be 0.107 nM; in data set [5], 0.00449 nM; in data set [7] (Hepatitis C virus, 72 h), 0.2 nM. The CC50 at 72 h in data set [3], in data set [4] and in data set [6] was > 100 nM each time.
With `COC(=O)N[C@H](C(=O)N1CC(F)(F)C[C@H]1C(=O)Nc1ccc2c(c1)OC(c1ccccc1)n1c-2cc2cc(NC(=O)[C@@H]3CC(F)(F)CN3C(=O)[C@@H](NC(=O)OC)C(C)C)ccc21)C(C)C` (some centres unmarked) [PA6011], the EC50 came to 0.0476 nM in data set [2]; 0.00118 nM in data set [5]; 0.312 nM in data set [7] (Hepatitis C virus, 72 h). The CC50 at 72 h in data set [3], in data set [4] and in data set [6] was > 100 nM throughout.
As to `COC(=O)N[C@H](C(=O)N1CCC[C@H]1C(=O)Nc1ccc2c(c1)O[C@@H](c1cc(F)cc(F)c1)n1c-2cc2cc(NC(=O)[C@@H]3CCCN3C(=O)[C@@H](NC(=O)OC)C(C)C)ccc21)C(C)C` [PA6016-B], the EC50 is 0.018 nM in data set [2]; 0.00434 nM in data set [5]; 0.0615 nM in data set [7] (Hepatitis C virus, 72 h). In addition, the CC50 at 72 h in data set [3], in data set [4] and in data set [6] was > 100 nM throughout.
For the compound `COC(=O)N[C@H](C(=O)N1CCC[C@H]1C(=O)Nc1ccc2c(c1)OC(c1cc(F)cc(F)c1)n1c-2cc2cc(NC(=O)[C@@H]3CCCN3C(=O)[C@@H](NC(=O)OC)C(C)C)ccc21)C(C)C` (some centres unmarked) [PA6016], the EC50 is 0.0433 nM in data set [2]; 0.00365 nM in data set [5]; 0.04 to 0.05 nM in data set [7] (Hepatitis C virus, 72 h); 0.0499 nM in data set [7] (72 hours). Also, the CC50 at 72 h in data set [3], in data set [4] and in data set [6] was > 100 nM in each case.
On to `COC(=O)N[C@H](C(=O)N1CC2(CC2)C[C@H]1C(=O)Nc1ccc2c(c1)OC(c1cc(F)cc(F)c1)n1c-2cc2cc(NC(=O)[C@@H]3CC4(CC4)CN3C(=O)[C@@H](NC(=O)OC)C(C)C)ccc21)C(C)C` (some centres unmarked) [PA6017], for which the EC50 in data set [2] came out at 0.0268 nM; in data set [5], 0.00236 nM; in data set [7] (Hepatitis C virus, 72 h), 0.743 nM. Further, the CC50 at 72 h in data set [3], in data set [4] and in data set [6] was > 100 nM each time.
Turning to `COC(=O)N[C@H](C(=O)N1C[C@H](F)C[C@H]1C(=O)Nc1ccc2c(c1)OC(c1cc(F)cc(F)c1)n1c-2cc2cc(NC(=O)[C@@H]3C[C@H](F)CN3C(=O)[C@@H](NC(=O)OC)C(C)C)ccc21)C(C)C` (some centres unmarked) [PA6018], the EC50 in data set [2] was 0.0351 nM; in data set [5], 0.00295 nM; in data set [7] (Hepatitis C virus, 72 h) it was 0.102 nM. Also, the CC50 at 72 h in data set [3], in data set [4] and in data set [6] was > 100 nM throughout.
As for `COC(=O)N[C@H](C(=O)N1CC(F)(F)C[C@H]1C(=O)Nc1ccc2c(c1)OC(c1cc(F)cc(F)c1)n1c-2cc2cc(NC(=O)[C@@H]3CC(F)(F)CN3C(=O)[C@@H](NC(=O)OC)C(C)C)ccc21)C(C)C` (some centres unmarked) [PA6019], the EC50 is 0.0534 nM in data set [2] and 0.234 nM in data set [7] (Hepatitis C virus, 72 h). The CC50 at 72 h in data set [3], in data set [4] and in data set [6] was > 100 nM each time.
Regarding `COC(=O)N[C@H](C(=O)N1CCC[C@H]1C(=O)Nc1ccc2c(c1)O[C@@H](c1c(F)c(F)c(F)c(F)c1F)n1c-2cc2cc(NC(=O)[C@@H]3CCCN3C(=O)[C@@H](NC(=O)OC)C(C)C)ccc21)C(C)C` [PA6030], the concentration giving a half-maximal response (EC50) stood at 0.0763 nM in data set [2]; 0.00315 nM in data set [5]; 0.207 nM in data set [7] (Hepatitis C virus, 72 h). Further, the CC50 at 72 h in data set [3], in data set [4] and in data set [6] was > 100 nM each time.
Turning to `COC(=O)N[C@H](C(=O)N1CCC[C@H]1C(=O)Nc1ccc2c(c1)O[C@@H](c1c(F)c(F)cc(F)c1F)n1c-2cc2cc(NC(=O)[C@@H]3CCCN3C(=O)[C@@H](NC(=O)OC)C(C)C)ccc21)C(C)C` [PA6031], the EC50 was 0.0369 nM in data set [2]; 0.0023 nM in data set [5]; 0.04 to 0.05 nM in data set [7] (Hepatitis C virus, 72 h); 0.0401 nM in data set [7] (72 hours). Besides, the CC50 at 72 h in data set [3], in data set [4] and in data set [6] was > 100 nM in each case.
Take `COC(=O)N[C@H](C(=O)N1CCC[C@H]1C(=O)Nc1ccc2c(c1)O[C@@H](c1cc(F)c(F)c(F)c1)n1c-2cc2cc(NC(=O)[C@@H]3CCCN3C(=O)[C@@H](NC(=O)OC)C(C)C)ccc21)C(C)C` [PA6032]: the 50% effective concentration (EC50) was found to be 0.0168 nM in data set [2]; 0.00304 nM in data set [5]; 0.147 nM in data set [7] (Hepatitis C virus, 72 h). The CC50 at 72 h in data set [3], in data set [4] and in data set [6] was > 100 nM each time.
